From patent publication US20250145665A1, “MACROCYCLIC PEPTIDES USEFUL AS MODULATORS OF TNF ALPHA” (Bristol-Myers Squibb Company, priority 2023, published 2025)
Read-outs that look alike come from different tables or passages of the source. Starred links: 1 amine or outer side, 2 acyl side, 3 side chain; linkers in the order of their positions; H or OH if unused. Positions of bridges follow the written chain, without caps; N, C: chain ends. Non-standard residues stand in square brackets, D forms with d. Residues, ends and D or L forms follow the SMILES beside them. *: point of attachment. Bip(4'-NHCO-C6H4-3-CH2COOH) = N[C@@H](Cc1ccc(-c2ccc(NC(=O)c3cccc(CC(=O)O)c3)cc2)cc1)C(=O)O; dArg(Nω-CH2C6H4-3-CH2Gua) = N=C(N)NCc1cccc(CNC(=N)NCCC[C@@H](N)C(=O)O)c1; X47 = O=C(Nc1ccc(-c2ccc(C[C@H](N[*:1])C(=O)[*:2])cc2)cc1)c1coc2ccccc12; Bip(4'-NHBz) = N[C@@H](Cc1ccc(-c2ccc(NC(=O)c3ccccc3)cc2)cc1)C(=O)O; Bip(4'-NH) = O=C([C@H](Cc1ccc(-c2ccc(N[*:3])cc2)cc1)N[*:1])[*:2]; Indazole3carbonyl(1-CH2COOH) = O=C(O)Cn1nc(C(=O)*)c2ccccc21; Bip(4'-COOH) = N[C@@H](Cc1ccc(-c2ccc(C(=O)O)cc2)cc1)C(=O)O; Bip(4'-NHAc) = CC(=O)Nc1ccc(-c2ccc(C[C@H](N)C(=O)O)cc2)cc1; Pro(trans-4-Ph) = O=C(O)[C@@H]1C[C@@H](c2ccccc2)CN1; Ala(imidazol-2-yl) = N[C@@H](Cc1ncc[nH]1)C(=O)O; Ala(morpholin-4-yl) = N[C@@H](CN1CCOCC1)C(=O)O; Bip = N[C@@H](Cc1ccc(-c2ccccc2)cc1)C(=O)O; Ala(2-furyl) = N[C@@H](Cc1ccco1)C(=O)O; 2Pal = N[C@@H](Cc1ccccn1)C(=O)O; Tic = O=C(O)[C@@H]1Cc2ccccc2CN1; 2Thi = N[C@@H](Cc1cccs1)C(=O)O; Cha = N[C@@H](CC1CCCCC1)C(=O)O; Sar = CNCC(=O)O

Biological target: TNFα (Homo sapiens, UniProt P01375)
Test: TNF-Induced HEK-Blue Assay
Format: cell-based
[1] = HEK-Blue-CD40L cells, NF-kB-driven secreted alkaline phosphatase reporter, TNFα 0.5 ng/ml, 18 h, read-out: TNF induced HEK-Blue assay IC50 value

Chain of TNFα (P01375 77-233 limits assumed): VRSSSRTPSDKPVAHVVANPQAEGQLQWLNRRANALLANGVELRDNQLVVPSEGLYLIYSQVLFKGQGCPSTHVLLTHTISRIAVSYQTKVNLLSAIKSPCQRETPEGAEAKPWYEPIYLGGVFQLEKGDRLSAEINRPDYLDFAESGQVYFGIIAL

Row | IC50 [1] [µM] | SMILES | IC50 [µM]
1 | < 0.05 | CC(C)C[C@@H]1NC(=O)[C@H](Cc2cccs2)NC(=O)[C@H](C(C)C)NC(=O)[C@@H]2CCCN2C(=O)[C@H](C(C)C)NC(=O)[C@@H](CCCNC(=N)N)NC(=O)[C@H](CC(=O)O)NC(=O)[C@H](Cc2ccccn2)NC(=O)CN(C)C(=O)[C@H](Cc2ccc(-c3ccc(NC(=O)c4cccc(CC(=O)O)c4)cc3)cc2)NC(=O)[C@H](Cc2ccc(-c3ccccc3)cc2)NC(=O)[C@H](CN2CCOCC2)NC(=O)CSC[C@@H](C(=O)NCC(N)=O)NC1=O [Example 608] ({CH2CO}-[Ala(morpholin-4-yl)][Bip][Bip(4'-NHCO-C6H4-3-CH2COOH)][Sar][2Pal]D[dR]VPV[2Thi]LCG-NH2; thioether N-13) | 
2 | 0.05 to 0.2 | CC(=O)Nc1ccc(-c2ccc(C[C@@H]3NC(=O)[C@H](Cc4ccc(-c5ccccc5)cc4)NC(=O)[C@H](CN4CCOCC4)NC(=O)CSC[C@@H](C(=O)NCC(N)=O)NC(=O)[C@H](CC(C)C)NC(=O)[C@H](Cc4cnc[nH]4)NC(=O)[C@H](C(C)C)NC(=O)[C@@H]4CCCN4C(=O)[C@H](C(C)C)NC(=O)[C@@H](CCCNC(=N)N)NC(=O)[C@H](CC(=O)O)NC(=O)[C@H](Cc4ccco4)NC(=O)CN(C)C3=O)cc2)cc1 [Example 519] ({CH2CO}-[Ala(morpholin-4-yl)][Bip][Bip(4'-NHAc)][Sar][Ala(2-furyl)]D[dR]VPVHLCG-NH2; thioether N-13) | 
3 | 0.05 to 0.2 | CC[C@H](C)[C@@H]1NC(=O)[C@@H]2CCCN2C(=O)[C@H]([C@@H](C)CC)NC(=O)[C@@H](CCCNC(=N)N)NC(=O)[C@H](CC(=O)O)NC(=O)[C@H](Cc2ccccc2)NC(=O)CN(C)C(=O)[C@H](Cc2ccc(-c3ccc(NC(=O)c4coc5ccccc45)cc3)cc2)NC(=O)[C@H](Cc2ccc(-c3ccccc3)cc2)NC(=O)[C@H](CC2CCCCC2)NC(=O)CSC[C@@H](C(=O)NCC(N)=O)NC(=O)[C@H](CC(C)C)NC(=O)[C@H](Cc2ncc[nH]2)NC1=O [Example 401] ({CH2CO}-[Cha][Bip][X47][Sar]FD[dR]IPI[Ala(imidazol-2-yl)]LCG-NH2; thioether N-13) | 

More lines, now with the values behind:

Row | SMILES | IC50 [1] [µM] | IC50 [µM]
4 | CC(C)C[C@@H]1NC(=O)[C@H](CCCNC(=N)N)NC(=O)[C@H](C(C)C)NC(=O)[C@@H]2CCCN2C(=O)[C@H](C(C)C)NC(=O)[C@@H](CCCNC(=N)NCc2cccc(CNC(=N)N)c2)NC(=O)[C@H](CC(=O)O)NC(=O)[C@@H]2CCCN2C(=O)CN(C)C(=O)[C@H](Cc2ccc(-c3ccc(NC(=O)c4nn(CC(=O)O)c5ccccc45)cc3)cc2)NC(=O)[C@H](Cc2ccc(-c3ccccc3)cc2)NC(=O)[C@H](CN2CCOCC2)NC(=O)CSC[C@@H](C(=O)NCC(N)=O)NC1=O [Example 512] ({CH2CO}-[Ala(morpholin-4-yl)][Bip][Bip(4'-NH)](Indazole3carbonyl(1-CH2COOH))[Sar]PD[dArg(Nω-CH2C6H4-3-CH2Gua)]VPVRLCG-NH2; thioether N-13) |  | < 0.05
5 | CC(C)C[C@@H]1NC(=O)[C@H](CCCNC(=N)N)NC(=O)[C@H](C(C)C)NC(=O)[C@@H]2CCCN2C(=O)[C@H](C(C)C)NC(=O)[C@H](CCCNC(=N)N)NC(=O)[C@H](CC(=O)O)NC(=O)[C@@H]2C[C@@H](c3ccccc3)CN2C(=O)CN(C)C(=O)[C@H](Cc2ccc(-c3ccccc3)cc2)NC(=O)[C@H](Cc2ccc(-c3ccccc3)cc2)NC(=O)[C@H](CN2CCOCC2)NC(=O)CSC[C@@H](C(=O)NCC(N)=O)NC1=O [Example 97] ({CH2CO}-[Ala(morpholin-4-yl)][Bip][Bip][Sar][Pro(trans-4-Ph)]DRVPVRLCG-NH2; thioether N-13) | 0.05 to 0.2 | 
6 | CC(C)C[C@@H]1NC(=O)[C@H](Cc2ccc(O)cc2)NC(=O)[C@H](C(C)C)NC(=O)[C@@H]2Cc3ccccc3CN2C(=O)[C@H](C(C)C)NC(=O)[C@@H](CCCNC(=N)N)NC(=O)[C@H](CC(=O)O)NC(=O)[C@@H]2CCCN2C(=O)CN(C)C(=O)[C@H](Cc2ccc(-c3ccc(NC(=O)c4ccccc4)cc3)cc2)NC(=O)[C@H](Cc2ccc(-c3ccc(C(=O)O)cc3)cc2)NC(=O)[C@H](CC2CCCCC2)NC(=O)CSC[C@@H](C(=O)NCC(N)=O)NC1=O [Example 383] ({CH2CO}-[Cha][Bip(4'-COOH)][Bip(4'-NHBz)][Sar]PD[dR]V[Tic]VYLCG-NH2; thioether N-13) |  | 0.05 to 0.2
